Patent US20260216142A1, “USES OF ZLN-005 AND RELATED COMPOUNDS” (priority 2022, published 2026)

What was measured:
[1] = test system: cecal ligation and perforation (CLP) model; experiment: CLP model of sepsis: survival and behavior; format: in vivo, C57BL/6 mice; conditions: 12 mg/kg i.p. daily Day 0 to Day 2
Experimental: Cecal ligation and perforation was performed on C57BL/6 mice about 10 to 20 weeks of age. Mice were administered either ZLN-005 at 12 mg/kg (i.p.) or vehicle (DMSO) at the time of cecal ligation and perforation, 24 hours later, and 48 hours later (FIG. 1A).
C57BL/6 mice were purchased from Shimizu Laboratory Supplies Co., Ltd. (Kyoto, Japan). Mice were housed in specific-pathogen-free conditions with free access to food and water. Mice were anesthetized by inhalation of isoflurane (099-06571, FUJIFILM Wako Pure Chemical Corporation, Tokyo, Japan). A midline incision was made, followed by externalization, and the cecum was then ligated at half the distance between the distal pole and the base of the cecum and punctured with a 21-gauge needle (NN-2116R, Terumo Corporation, Tokyo, Japan). Next, a small amount of fecal mass from the punctured cecum was gently squeezed out to ensure patency of punctures, the cecum was relocated, and 6/0 Ethicon PROLENE Suture (Ethicon, Inc., Raritan, NJ, USA) was used to close the peritoneum and skin. Sham-operated mice underwent only incision and cecum exteriorization. […]
The results are presented as the means±standard deviations. The statistical significance of differences among groups was evaluated using parametric unpaired t tests for bar graphs. […]

naïve THP-1 = experiment: Expression over time in naïve THP-1; format: cell-based, human
CLP sepsis model = experiment: Echocardiographic measurement at 24 hours post-CLP; format: in vivo, mice; conditions: 24 hours after CLP
Experimental: Chest hair was removed with cream one day before echocardiography was performed using VisualSonics Vevo®@2100 equipped with an 18- to 38-MHz probe (VisualSonics, Toronto, ON, Canada). Mice were anesthetized by inhalation of isoflurane at 24 hours post-CLP. The left ventricle was assessed in the parasternal short-axis view. Left ventricular end-systole or end-diastole was defined as the period when the left ventricular lumen was shortest or most dilated, respectively. Diastolic left ventricular (LV) internal diameters, systolic LV internal diameters, diastolic LV anterior wall, and diastolic LV posterior wall were measured from the LV M-mode tracing at the papillary muscle level. LV wall thickness was calculated as the average of anterior and posterior wall thicknesses.

THP-1 cells = experiment: Autophagy flux (LC3 conversion, Western blotting) in LPS model of THP-1; format: cell-based, human; conditions: 6 hours LPS followed by 2 or 6 hours autophagy inhibitor (50 nM bafilomycin A1 or 30 nM chloroquine)
Experimental: Cells were incubated at 37° C. in a humidified 5% CO2 incubator. […] After 48 hours, the supernatant of the medium was carefully removed to avoid detaching the cells attached to the bottom of the plate and replaced with new medium containing 1 μM ZLN-005 or DMSO (0.1%) as a control. […] For PI3K inhibition, the cells were seeded in the plate and added 200 nM Wortmannin (AG-CN2-0023-M001, Adipogen Life Sciences Inc.).
Protein levels were quantified using ImageJ™.

Row | SMILES | mice alive at 72 hours ([1]; 72 hours post-CLP) [%] | mice alive after 6 days ([1]; 6 days post-CLP) [%] | increase in expression at the protein level (naïve THP-1; naïve THP-1, 36 hours (data not shown)) [fold] | increase in expression at the mRNA level (naïve THP-1; naïve THP-1, 48 hours (data not shown)) [fold] | ejection fraction (CLP sepsis model) [%] | LC3-II and LC3-II/I ratios (THP-1 cells)
1 | CC(C)(C)c1ccc(-c2nc3ccccc3[nH]2)cc1 [ZLN-005, 2-(4-tert-butylphenyl)-1H-benzimidazole] | 40 | 30 | 2 | 2 | ~50 | 
2 | CO/C1=C\C(C)=C\[C@@H](C)[C@@H](O)[C@@H](C)C/C(C)=C/C=C/[C@H](OC)[C@@H]([C@@H](C)[C@@H](O)[C@H](C)[C@@]2(O)C[C@@H](O)[C@H](C)[C@@H](C(C)C)O2)OC1=O [bafilomycin A1] |  |  |  |  |  | increasing with significant differences
